Legend:
[1] = test system: human α3β4, α4β2, α3β2 and α7 receptors; settings: cited from earlier work; for mode of inhibition: neuronal nAChRs; for selectivity between nAChR types: neuronal vs muscle-type nAChRs
[2] = test system: inflammatory cytokines IL-6, IL-1β, and TNFα; test: SARS-CoV-2 induced cytokine gene expression in Calu3 cells; type: cell-based; settings: 0.1 MOI SARS CoV2, single agent: PG 20 μM, Mec 5 μM or Mec iso 5 μM, 48 hrs
[3] = higher doses (30-90 mg/day); cited from earlier work
[4] = in vivo; cited from earlier work
[5] = test system: mouse hepatitis virus strain 4 (MHV4); test: MHV4 replication in infected IMG cells (GFP expression, N gene qPCR); type: cell-based; settings: 2 MOI MHV4, mecamylamine 1, 10 or 40 μM, 48 hours
[6] = test system: inflammatory cytokine gene expression (IL1-β, IL-6, TNF-α); test: Inflammatory cytokine gene expression in MHV4 infected IMG cells; type: cell-based; settings: 2 MOI MHV4, mecamylamine 1, 10 or 40 μM, 48 hours

Compound | mode of inhibition [1] | selectivity between nAChR types [1] | inflammatory cytokines IL-6, IL-1β, and TNFα [2] | side effects [3] | blood brain barrier penetration [4] | GFP expressing cells [5] | MHV-4 N-gene expression [5] | cytokine gene transcription (qPCR) [6]
CNC1(C)C2CCC(C2)C1(C)C (stereo not drawn) [R-(−)-mecamylamine] | noncompetitive inhibitors | selective for neuronal nAChRs over muscle-type nAChRs | – | – | – | – | – | –
CN[C@@]1(C)[C@@H]2CC[C@@H](C2)C1(C)C [S-(+)-mecamylamine] | noncompetitive inhibitors | selective for neuronal nAChRs over muscle-type nAChRs | – | – | – | – | – | –
CNC1(C)C2CCC(C2)C1(C)C (racemic) [mecamylamine] | – | selective for neuronal nAChRs over muscle-type nAChRs | significant decrease | causes unfavorable side effects | ability to cross the blood brain barrier | dose-dependent decrease | dose-dependent decrease | dose-dependent decrease
